Source: US7521454B2 (Dainippon Sumitomo Pharma Co., Ltd., priority 2001, dated 2009)
In brackets after ≈: the same amount, converted by molar mass. Read-outs that look alike come from different tables or passages of the source.

Tests used:
mouse spleen cell = experiment: cells; assay type: cell-based; settings: Mus musculus, 24 h, read-out: Interferon-inducing activity: Minimum effective concentration
Balb/c male mouse = experiment: Interferon-inducing activity in mouse (in vivo), serum interferon titer after oral dosing
IL-4 production = experiment: Inhibitory activity against Th2 cytokine produced from sensitized spleen cells: IL-4; assay type: cell-based, mouse; settings: Mus musculus, 72 h; for activity at 0.001 µM / activity at 0.01 µM / activity at 0.1 µM: read-out: Inhibitory activity against IL-4 production
Procedure: (§1) A 7-week-old BALB/c mouse was immunized intraperitoneally with aluminum hydroxide gel (4 mg, 100 μl) having 10 μg of ovalbumin adsorbed thereon, and it was subjected to additional immunization with the same agent 14 days later. Seven days thereafter, spleen was taken out, and suspended in RPMI-1640 comprising inactivated fetal bovine serum (10%), 2-mercaptoethanol ([…]), penicillin G (100 U/ml), and streptomycin (100 μg/ml). Thus, a splenic cell suspension was prepared. Ovalbumin (0.5 mg/ml) and a test compound were added to a splenic cell suspension (5×10^6 cell/200 μl/well), and the resultant was cultured at 37° C. in the presence of 5% CO2 for 3 days. The cytokine level in the culture supernatant was quantified by ELISA. IFN-γ and IL-4 were assayed using a kit available from Amersham, and IL-5 was assayed using a kit available from Endogen.

IL-5 production = experiment: Inhibitory activity against Th2 cytokine produced from sensitized spleen cells: IL-5; assay type: cell-based, mouse; settings: Mus musculus, 72 h; for activity at 0.001 µM / activity at 0.01 µM / activity at 0.1 µM: read-out: Inhibitory activity against IL-5 production
Procedure: as §1

[1] = Solubility in citric acid/disodium phosphate buffers; settings: for solubility at 30 min: thermodynamic from solid
Procedure: 5.53% citric acid (monohydrate) and 1.75% disodium phosphate (anhydrous) were mixed together to prepare buffers (pH 2.5, 5.5, 7.4). A compound was added thereto, the mixture was stirred in a vortex mixer and subjected to ultrasonication for 30 minutes. Thereafter, the resultant was stirred in a vortex mixer again and then centrifuged at 15,000 rpm for 20 minutes. The levels of the compounds in the supernatants were then quantified by HPLC.

[2] = dosage 0.3 mg/kg oral, serum 2 h after dosing, Balb/c mouse
[3] = dosage 0.03 mg/kg oral, serum 2 h after dosing, Balb/c mouse
[4] = dosage 0.1 mg/kg oral, serum 2 h after dosing, Balb/c mouse
[5] = citric acid/disodium phosphate buffer, pH 2.5, aqueous buffer
[6] = concentration 0.1 nM, OVA-sensitized BALB/c spleen cells, 3 days
[7] = concentration 1 nM, OVA-sensitized BALB/c spleen cells, 3 days
[8] = concentration 10 nM, OVA-sensitized BALB/c spleen cells, 3 days
[9] = concentration 100 nM, OVA-sensitized BALB/c spleen cells, 3 days
[10] = citric acid/disodium phosphate buffer, pH 5.5, aqueous buffer
[11] = citric acid/disodium phosphate buffer, pH 7.4, aqueous buffer

SMILES | minimal effective concentration (mouse spleen cell) | Interferon-inducing activity (Balb/c male mouse; [2]) | Interferon-inducing activity (Balb/c male mouse; po, 0.1 mg/kg, 2 h) | Interferon-inducing activity (Balb/c male mouse; po, 0.3 mg/kg, 2 h) | solubility at 30 min [1, 5] | solubility at 30 min [1, 10] | solubility at 30 min [1, 11] | also measured
CCCCOc1ccc(Cn2c(O)nc3c(N)nc(OCCCC)nc32)cn1 [Example 4, 2-Butoxy-9-(6-n-butoxy-3-pyridylmethyl)-8-hydroxyadenine] | 0.01 µM |  |  |  |  |  |  | 
CCCCNc1nc(N)c2nc(O)n(Cc3ccc(C)nc3Cl)c2n1 [Example 29, 2-Butylamino-9-(2-chloro-6-methyl-3-pyridylmethyl)-8-hydroxyadenine] | 0.01 µM | 619 ± 268 U/ml |  |  |  |  |  | 
CCCCOc1nc(N)c2nc(O)n(Cc3cnccn3)c2n1 [Example 10] |  | 733 ± 256 U/ml |  |  |  |  |  | Interferon-inducing activity (Balb/c male mouse; [3]): 89 ± 22 U/ml; Interferon-inducing activity (Balb/c male mouse; [4]): 409 ± 267 U/ml; activity at 0.001 µM (IL-4 production): 54%; activity at 0.01 µM (IL-4 production): 3%; activity at 0.1 µM (IL-4 production): < 1%; activity at 0.001 µM (IL-5 production): 91%; activity at 0.01 µM (IL-5 production): 32%; activity at 0.1 µM (IL-5 production): 15%; solubility at 30 min ([1]; pH 2.5, aqueous buffer): 34 µg/mL (≈ 108 µM); solubility at 30 min ([1]; pH 5.5, aqueous buffer): 15 µg/mL (≈ 47.6 µM); solubility at 30 min ([1]; pH 7.4, aqueous buffer): 10 µg/mL (≈ 31.7 µM)
CCCCOc1nc(N)c2nc(O)n(Cc3ccc(N(C)C)nc3)c2n1 [Example 16, 2-Butoxy-9-(6-dimethylamino-3-pyridylmethyl)-8-hydroxyadenine] | 0.001 µM |  | 251 ± 46 U/ml | 716 ± 155 U/ml | 293 µg/mL (≈ 820 µM) |  |  | 
CCCCOc1nc(N)c2nc(O)n(Cc3ccc(OCC)nc3)c2n1 [Example 3, 2-Butoxy-9-(6-ethoxy-3-pyridylmethyl)-8-hydroxyadenine] | 0.001 µM |  | 353 ± 73 U/ml | 1966 ± 532 U/ml |  |  |  | 
CCCCOc1nc(N)c2nc(O)n(Cc3cnc(Cl)c(OC)c3)c2n1 [Example 7, 2-Butoxy-9-(6-chloro-5-methoxy-3-pyridylmethyl)-8-hydroxyadenine] | 0.001 µM | 845 ± 22 U/ml |  |  |  |  |  | Interferon-inducing activity (Balb/c male mouse; [4]): 347 ± 149 U/ml
COCCOc1nc(N)c2nc(O)n(Cc3cccnc3)c2n1 [Example 31, 8-Hydroxy-2-(2-methoxy)ethoxy-9-(3-pyridylmethyl)adenine] |  |  |  |  |  |  |  | Solubility (level of compound in supernatant) ([1]; pH 2.5 buffer): >1,000 μg/ml; Solubility (level of compound in supernatant) ([1]; pH 5.5 buffer): 353 µg/mL; Solubility (level of compound in supernatant) ([1]; pH 7.4 buffer): 322 µg/mL
CCCCOc1nc(N)c2nc(O)n(Cc3ccc(N4CCCCC4)nc3)c2n1 [Example 13, 2-Butoxy-9-(6-piperidino-3-pyridylmethyl)-8-hydroxyadenine] | 0.003 µM |  |  | 304 ± 138 U/ml |  |  |  | 
CCCCOc1nc(N)c2nc(O)n(Cc3ccc(Cl)nc3)c2n1 [Example 1, 2-Butoxy-9-(6-chloro-3-pyridylmethyl)-8-hydroxyadenine] | 0.001 µM | 623 ± 32 U/ml |  |  |  |  |  | Interferon-inducing activity (Balb/c male mouse; [3]): 123 ± 87 U/ml; Interferon-inducing activity (Balb/c male mouse; [4]): 322 ± 95 U/ml; activity at 0.0001 µM (IL-4 production; [6]): 98%; activity at 0.001 µM (IL-4 production; [7]): 7%; activity at 0.01 µM (IL-4 production; [8]): 2%; activity at 0.1 µM (IL-4 production; [9]): < 1%; activity at 0.0001 µM (IL-5 production; [6]): 116%; activity at 0.001 µM (IL-5 production; [7]): 41%; activity at 0.01 µM (IL-5 production; [8]): 16%; activity at 0.1 µM (IL-5 production; [9]): 15%
CCCCOc1nc(N)c2nc(O)n(Cc3ccc(N4CCCC4)nc3)c2n1 [Example 14, 2-Butoxy-9-(6-(1-pyrrolidinyl)-3-pyridylmethyl)-8-hydroxyadenine] | 0.001 µM |  |  | 570 ± 63 U/ml |  |  |  | 
CCCCOc1nc(N)c2nc(O)n(Cc3cccnc3Cl)c2n1 [Example 5, 2-Butoxy-9-(2-chloro-3-pyridylmethyl)-8-hydroxyadenine] | 0.003 µM |  | 133 ± 33 U/ml | 473 ± 9 U/ml |  |  |  | 
CCCCNc1nc(N)c2nc(O)n(Cc3ccc(N(C)C)nc3)c2n1 [Example 24, 2-Butylamino-9-(6-dimethylamino-3-pyridylmethyl)-8-hydroxyadenine] | 0.003 µM |  |  | 403 ± 146 U/ml | 27000 µg/mL (≈ 75800 µM) | 22 µg/mL (≈ 61.7 µM) | 1 µg/mL (≈ 2.81 µM) | 
CCCCOc1nc(N)c2nc(O)n(Cc3ccc(N4CCOCC4)nc3)c2n1 [Example 15, 2-Butoxy-9-(6-morpholino-3-pyridylmethyl)-8-hydroxyadenine] | 0.001 µM |  | 52 ± 32 U/ml | 603 ± 147 U/ml | 140 µg/mL (≈ 350 µM) | 1 µg/mL (≈ 2.5 µM) | < 1 µg/mL | 
CCCCOc1nc(N)c2nc(O)n(Cc3cccnc3)c2n1 [Example 8, 2-Butoxy-8-hydroxy-9-(3-pyridylmethyl)adenine] | 0.001 µM |  | 725 ± 141 U/ml | 936 ± 438 U/ml | 784 µg/mL (≈ 2490 µM) | 20 µg/mL (≈ 63.6 µM) | 18 µg/mL (≈ 57.3 µM) | Interferon-inducing activity (Balb/c male mouse; po, 0.01 mg/kg, 2 h): 13 ± 5 U/ml; Interferon-inducing activity (Balb/c male mouse; po, 0.03 mg/kg, 2 h): 167 ± 97 U/ml
CCCCOc1nc(N)c2nc(O)n(Cc3cccnc3OC)c2n1 [Example 6, 2-Butoxy-8-hydroxy-9-(2-methoxy-3-pyridylmethyl)adenine] | 0.001 µM |  | 569 ± 42 U/ml | 1222 ± 248 U/ml |  |  |  | 
CCCCOc1nc(N)c2nc(O)n(Cc3ccncc3)c2n1 [Example 9, 2-Butoxy-8-hydroxy-9-(4-pyridylmethyl)adenine] | 0.003 µM |  |  | 539 ± 107 U/ml | 350 µg/mL (≈ 1110 µM) | 4 µg/mL (≈ 12.7 µM) | 3 µg/mL (≈ 9.54 µM) | 
CCCCNc1nc(N)c2nc(O)n(Cc3cccnc3C)c2n1 [Example 28, 2-Butylamino-8-hydroxy-9-(2-methyl-3-pyridylmethyl)adenine] | 0.01 µM |  | 186 ± 62 U/ml | 1462 ± 260 U/ml | > 1000 µg/mL | 8 µg/mL (≈ 24.4 µM) | 4 µg/mL (≈ 12.2 µM) | 
CCCCOc1nc(N)c2nc(O)n(Cc3cnc(Cl)c(Cl)c3)c2n1 [Example 11, 2-Butoxy-9-(5,6-dichloro-3-pyridylmethyl)-8-hydroxyadenine] | 0.003 µM | 568 ± 160 U/ml |  |  |  |  |  | Interferon-inducing activity (Balb/c male mouse; [4]): 279 ± 177 U/ml
CCCCOc1nc(N)c2nc(O)n(Cc3cccnc3C)c2n1 [Example 26, 2-Butoxy-8-hydroxy-9-(2-methyl-3-pyridylmethyl)adenine] | 0.001 µM |  | 433 ± 366 U/ml | 780 ± 190 U/ml | > 1000 µg/mL | 6 µg/mL (≈ 18.3 µM) | 3 µg/mL (≈ 9.14 µM) | Interferon-inducing activity (Balb/c male mouse; po, 0.03 mg/kg, 2 h): 121 ± 11 U/ml
CCCCOc1nc(N)c2nc(O)n(Cc3ccc(Cl)nc3Cl)c2n1 [Example 12, 2-Butoxy-9-(2,6-dichloro-3-pyridylmethyl)-8-hydroxyadenine] | 0.01 µM | 31 ± 5 U/ml |  |  |  |  |  | 
COc1nc(N)c2nc(O)n(Cc3cccnc3)c2n1 [Example 32, 8-Hydroxy-2-methoxy-9-(3-pyridylmethyl)adenine] |  |  |  |  | > 1000 µg/mL | 82 µg/mL (≈ 301 µM) | 25 µg/mL (≈ 91.8 µM) | 
CCCCNc1nc(N)c2nc(O)n(Cc3ccc(Cl)nc3Cl)c2n1 [Example 23, 2-Butylamino-9-(2,6-dichloro-3-pyridylmethyl)-8-hydroxyadenine] | 0.01 µM | 414 ± 118 U/ml |  |  |  |  |  | Interferon-inducing activity (Balb/c male mouse; [4]): 42 ± 7 U/ml
CCCCNc1nc(N)c2nc(O)n(Cc3cccnc3Cl)c2n1 [Example 18, 2-Butylamino-9-(2-chloro-3-pyridylmethyl)-8-hydroxyadenine] | 0.01 µM |  |  | 94 ± 49 U/ml |  |  |  | 
